Experimental data: patent US20220218647A1, “DIETARY BUTYRATE” (SOCIETE DES PRODUITS NESTLE S.A., priority 2019, published 2022)

Key:
[1] = molecular target: T1, porcine pancreatic lipase (PPL) (Sus scrofa, UniProt P00591); experiment: In vitro lipid digestion in simulated intestinal fluid (SIF), pH-stat; type: in vitro ADME; parameters: by porcine pancreatic lipase (from pancreatin); from tissue; host or cells: pancreatin (pig pancreas extract); details: SIF alone; emulsion containing 200 mg fat, pH 6.8, 37° C.
T1 sequence (P00591 1-450): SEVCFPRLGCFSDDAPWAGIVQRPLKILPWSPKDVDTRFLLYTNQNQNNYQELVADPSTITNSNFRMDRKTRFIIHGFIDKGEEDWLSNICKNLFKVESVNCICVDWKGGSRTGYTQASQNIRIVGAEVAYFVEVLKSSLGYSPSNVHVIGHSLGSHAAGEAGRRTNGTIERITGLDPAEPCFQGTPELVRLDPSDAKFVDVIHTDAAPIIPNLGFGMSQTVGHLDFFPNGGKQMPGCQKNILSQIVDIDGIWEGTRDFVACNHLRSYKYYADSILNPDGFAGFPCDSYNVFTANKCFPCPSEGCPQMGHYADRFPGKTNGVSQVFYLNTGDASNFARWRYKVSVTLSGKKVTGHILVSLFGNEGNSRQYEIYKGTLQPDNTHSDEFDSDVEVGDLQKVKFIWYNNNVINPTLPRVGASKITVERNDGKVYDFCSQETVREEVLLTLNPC
T1 sequence (P02703 23-112 partner): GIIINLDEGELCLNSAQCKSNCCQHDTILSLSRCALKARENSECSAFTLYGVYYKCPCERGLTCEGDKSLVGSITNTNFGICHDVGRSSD
From the text: (§1) An emulsion was then created using an ultrasonic probe homogeniser.

[2] = molecular target: T1, porcine pancreatic lipase (PPL); details: pig, 3 h, pH 11.5
From the text: Because many fatty acids are only partially ionised at pH 6.8, direct titration gives only partial picture of the extent of lipid digestion, instead back titration to pH 11.5 or GC-FAME analysis is required to estimate the full extent of digestion.

[3] = test system: rabbit gastric lipase (RGL) followed by porcine pancreatic lipase (PPL); experiment: Sequential in vitro digestion in simulated gastric fluid (SGF) followed by SIF, pH-stat; type: in vitro ADME
From the text: as §1

## CCCC(=O)OCC(COC(=O)CCC)OC(=O)CCC [tributyrin]
[1]
  initial rate of lipolysis: 223 ± 59 µmol/min
[2]
  extent of digestion: 101.5±0.9%
[3]; SGF-SIF sequential digestion, 200 mg fat
  initial lipolysis rate in SIF compartment: 44.1 ± 8.8 µmol/min
[3]; gastric compartment of the model
  hydrolysis in the stomach: extensive hydrolysis
[3]; indicated by decreased total fatty acid release during SIF lipolysis after pre-exposure to RGL in SGF
  lipolysis by gastric lipase: ~60%
